Laboratory results taken from article PMC8217550, “ERRγ enhances cardiac maturation with T-tubule formation in human iPSC-derived cardiomyocytes” (Nature Communications, 2021).

Biological target: T1, estrogen-related receptor gamma (ERRγ) (Homo sapiens, UniProt P62508)
T1 construct: gene ESRRG; His-tagged ERRγ LBD
T1 sequence (P62508 233-458 limits assumed): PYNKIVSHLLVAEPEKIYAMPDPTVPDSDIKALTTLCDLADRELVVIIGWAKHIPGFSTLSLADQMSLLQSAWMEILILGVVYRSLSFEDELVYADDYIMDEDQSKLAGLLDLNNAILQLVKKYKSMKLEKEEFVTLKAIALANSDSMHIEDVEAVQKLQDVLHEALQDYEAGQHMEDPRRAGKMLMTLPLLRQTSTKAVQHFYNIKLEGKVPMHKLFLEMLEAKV
T1 sequence (Q9UBK2 1-798 partner): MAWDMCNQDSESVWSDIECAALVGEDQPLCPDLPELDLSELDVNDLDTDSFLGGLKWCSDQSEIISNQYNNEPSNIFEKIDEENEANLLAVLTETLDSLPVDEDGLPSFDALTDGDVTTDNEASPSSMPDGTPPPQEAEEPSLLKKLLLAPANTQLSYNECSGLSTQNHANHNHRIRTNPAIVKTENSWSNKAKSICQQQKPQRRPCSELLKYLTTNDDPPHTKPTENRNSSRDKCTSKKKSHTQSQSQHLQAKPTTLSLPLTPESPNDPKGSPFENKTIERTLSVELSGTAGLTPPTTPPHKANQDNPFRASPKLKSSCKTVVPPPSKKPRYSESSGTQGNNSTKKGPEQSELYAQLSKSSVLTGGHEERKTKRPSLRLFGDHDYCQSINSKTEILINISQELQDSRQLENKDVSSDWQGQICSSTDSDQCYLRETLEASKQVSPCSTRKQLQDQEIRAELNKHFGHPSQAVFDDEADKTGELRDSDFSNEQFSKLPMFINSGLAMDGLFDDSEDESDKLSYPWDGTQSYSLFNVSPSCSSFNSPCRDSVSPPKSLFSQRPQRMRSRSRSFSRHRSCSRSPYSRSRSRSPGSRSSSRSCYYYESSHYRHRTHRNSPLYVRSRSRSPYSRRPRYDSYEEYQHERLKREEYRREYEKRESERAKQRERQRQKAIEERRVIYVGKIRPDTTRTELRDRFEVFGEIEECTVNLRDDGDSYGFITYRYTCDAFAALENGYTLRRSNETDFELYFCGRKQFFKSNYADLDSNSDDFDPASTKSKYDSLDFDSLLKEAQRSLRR
Test: LanthaScreen TR-FRET PGC1a coactivator-binding assay (agonist)
Assay type: biochemical

SMILES: O=C1c2ccc(N3CCOCC3)cc2CN1c1ccc2[nH]c(-c3ccc(Br)cc3)nc2c1 [T112, 2-[2-(4-bromophenyl)-1H-benzimidazol-5-yl]-5-(morpholin-4-yl)-2,3-dihydro-1H-isoindol-1-one]
- LanthaScreen TR-FRET PGC1a coactivator-binding assay (agonist): to have ERRγ-agonistic activity with stronger effects than the commercially available ERRγ agonist GSK4716
